According to patent publication US8735140B2, “Preservation and composition of bioprocess algae for production of lipids, seedstock, and feed” (Kuehnle AgroSystems, Inc., priority 2008, dated 2014):

Columns and labels:
Assay type in all cases: cell-based
[1] = test system: algae cells; assay: Trehalose treatment, viability at room temperature under low light
Procedure: Cells in 40 ml flask cultures are grown to mid-log phase with a density of between 3×10^6 and 3×10^7 cells/ml, and are centrifuged. Culture medium is removed after centrifugation, resulting in more concentrated algae cells. Cells are then re-suspended in ideal glass solution consisting of fresh culture medium and trehalose at a concentration of 0.1M, 0.3M, and 0.5M (dihydrate trehalose 100 from Hayashibara Co. Ltd, Okayama, Japan), respectively, and left overnight with mild agitation. Cells are centrifuged again to remove the ideal glass solution the next day, and are re-suspended in fresh or salt water without any nutrient. The cell density of the resulting suspension is determined prior to storage under the various treatments. (Some cells were also treated with a 0.5M sorbitol solution). Cell viability is determined by comparing the cell growth in control set with the experimental set. Specifically, cell counts are performed on all samples. The averaged density value (in cells per ml) for all the cultures after treatment is defined as “rejuvenation cell count.” In some samples, the percent recovery of cells immediately after storage is also determined. The formulae are illustrated as follows: Growth=(rejuvenation cell count)/(initial cell count) Cell recovery after storage=(cell density after storage)/(initial cell density), with controls set at 100% cell recovery. […]

[2] = test system: Chlorella KAS503; assay: Trehalose preservation, pretreatment with 0.5M sorbitol and embedding in alginate mat; details: for % viability after storage & rejuvenation / Cell recovery after storage, relative to control: 0M control = 100%; for Cell number after 21 weeks in storage & rejuvenation: 3 weeks rejuvenation; for Growth after storage & rejuvenation: 21 weeks + 3 weeks rejuvenation; for Cell recovery after storage, relative to control: 21 weeks
Procedure: (§1) Cells in 40 ml flask cultures are grown to mid-log phase with a density of between 3×10^6 and 3×10^7 cells/ml, and are centrifuged. Culture medium is removed after centrifugation, resulting in more concentrated algae cells. Cells are then re-suspended in ideal glass solution consisting of fresh culture medium and trehalose at a concentration of 0.1M, 0.3M, and 0.5M (dihydrate trehalose 100 from Hayashibara Co. Ltd, Okayama, Japan), respectively, and left overnight with mild agitation. Cells are centrifuged again to remove the ideal glass solution the next day, and are re-suspended in fresh or salt water without any nutrient. The cell density of the resulting suspension is determined prior to storage under the various treatments. (Some cells were also treated with a 0.5M sorbitol solution). In one specific embodiment, 2% (w/v) alginate solution (Sigma-Aldrich A-2033) and 3% CaCl2 solution (Sigma-Aldrich C1016) are prepared in salt water or fresh water medium as required by specific algae species, and autoclave sterilized. Then, 2.0 ml 2% alginate solution is pipetted into each well of a BD Falcon 12-well plate. 0.2 ml algae cell suspension is then pipetted into each well and the mixture is further stirred. The alginate-cell mixture is further sprayed with 3% CaCl2 solution in a sterile pump bottle, allowing the alginate to solidify. After solidification, plates are closed and placed under low light and at ambient temperature. After stored under the above preservation conditions for 5 months, algae cells can be rejuvenated by overlaying alginate/algae mixture with 3.0 ml sterile 5.0% NaPolyphosphate (Sigma Aldrich 305553) and allowing to the mixture sit overnight. The algae/alginate/NaPolyphosphate mixture is then removed from the 12-well plate, diluted with fresh medium (3 parts fresh medium to 1 part cell suspension) and placed under light. In one specific embodiment, cells are treated with trehalose solution at various concentrations and left overnight. Cells are centrifuged the next day to remove the trehalose solution, and then re-suspended in sterile 0.5M D-sorbitol (Fisher Scientific […]) dissolved in salt or fresh-water medium as required by specific algae species. Cells are left to stand for 2 hours with mild agitation. After 2 hours, cells are centrifuged again to remove the 0.5M sorbitol solution and re-suspended in fresh or salt-water medium. Cells are counted after the re-suspension. Cell viability is determined by comparing the cell growth in control set with the experimental set. Specifically, cell counts are performed on all samples. The averaged density value (in cells per ml) for all the cultures after treatment is defined as “rejuvenation cell count.” In some samples, the percent recovery of cells immediately after storage is also determined. The formulae are illustrated as follows: Growth=(rejuvenation cell count)/(initial cell count) Cell recovery after storage=(cell density after storage)/(initial cell density), with controls set at 100% cell recovery. Viability after storage and rejuvenation in nutrient medium=(Growth of treatment)/(Growth of control)×100%, with controls set at 100% viability

[3] = test system: Chlorella KAS603; assay: as above; details: for % viability after storage & rejuvenation / Cell recovery after storage, relative to control: 0M control = 100%; for Cell number after 21 weeks in storage & rejuvenation: 3 weeks rejuvenation; for Growth after storage & rejuvenation: 21 weeks + 3 weeks rejuvenation
Procedure: as §1

[4] = test system: Tetraselmis KAS633; assay: as above; details: for % viability after storage & rejuvenation / Cell recovery after storage, relative to control: 0M control = 100%; for Cell number after 21 weeks in storage & rejuvenation: 3 weeks rejuvenation; for Growth after storage & rejuvenation: 21 weeks + 3 weeks rejuvenation; for Cell recovery after storage, relative to control: 21 weeks
Procedure: as §1

[5] = test system: Synechocystis KAS635; assay: as above; details: for % viability after storage & rejuvenation / Cell recovery after storage, relative to control: 0M control = 100%; for Cell number after 21 weeks in storage & rejuvenation: 3 weeks rejuvenation; for Cell recovery after storage / Cell recovery after storage, relative to control: 21 weeks; for Growth after storage & rejuvenation: 21 weeks + 3 weeks rejuvenation
Procedure: as §1

[6] = 0.1M trehalose in F/2, 0.5M sorbitol pretreatment
[7] = 0.3M trehalose in F/2, 0.5M sorbitol pretreatment
[8] = 0.5M trehalose in F/2, 0.5M sorbitol pretreatment
[9] = 0.1M trehalose in F/2, 0.5M sorbitol pretreatment, 21 weeks
[10] = 0.1M trehalose in BG11, 0.5M sorbitol pretreatment
[11] = 0.3M trehalose in BG11, 0.5M sorbitol pretreatment
[12] = 0.5M trehalose in BG11, 0.5M sorbitol pretreatment

OC[C@H]1O[C@H](O[C@H]2O[C@H](CO)[C@@H](O)[C@H](O)[C@H]2O)[C@H](O)[C@@H](O)[C@@H]1O [trehalose, α-D-glycosyl-α-D-glycosylpyranoside]
Period for which cells remain viable [1]: at least 5 months | Cell number after 21 weeks in storage [2, 6]: 1.163 × 10^7 | % viability after storage & rejuvenation [2, 6]: (51%) | Cell number after 21 weeks in storage & rejuvenation [2, 6]: 1.03 × 10^7 cells/ml | Growth after storage & rejuvenation [2, 6]: 0.89 | Cell recovery after storage, relative to control [2, 6]: (227%) | Cell number after 21 weeks in storage [2, 7]: 8.097 × 10^6 | % viability after storage & rejuvenation [2, 7]: (148%) | Cell number after 21 weeks in storage & rejuvenation [2, 7]: 2.080 × 10^7 cells/ml | Growth after storage & rejuvenation [2, 7]: 2.57 | Cell recovery after storage, relative to control [2, 7]: (226%) | Cell number after 21 weeks in storage [2, 8]: 8.589 × 10^6 | % viability after storage & rejuvenation [2, 8]: (132%) | Cell number after 21 weeks in storage & rejuvenation [2, 8]: 1.959 × 10^7 cells/ml | Growth after storage & rejuvenation [2, 8]: 2.28 | Cell recovery after storage, relative to control [2, 8]: (231%) | Cell number after 21 weeks in storage [3, 6]: 1.920 × 10^7 | % viability after storage & rejuvenation [3, 6]: (105)% | Cell number after 21 weeks in storage & rejuvenation [3, 6]: 3.102 × 10^7 cells/ml | Cell recovery after storage [3, 9]: 1.76 | Growth after storage & rejuvenation [3, 6]: 1.62 | Cell recovery after storage, relative to control [3, 9]: (61%) | Cell number after 21 weeks in storage [3, 7]: 2.378 × 10^7 | % viability after storage & rejuvenation [3, 7]: (139)% | Cell number after 21 weeks in storage & rejuvenation [3, 7]: 5.099 × 10^7 cells/ml | Growth after storage & rejuvenation [3, 7]: 2.14 | Cell recovery after storage, relative to control ([3]; 0.3M trehalose in F/2, 0.5M sorbitol pretreatment, 21 weeks): (123%) | Cell number after 21 weeks in storage [3, 8]: 2.113 × 10^7 | % viability after storage & rejuvenation [3, 8]: (160%) | Cell number after 21 weeks in storage & rejuvenation [3, 8]: 5.197 × 10^7 cells/ml | Growth after storage & rejuvenation [3, 8]: 2.46 | Cell recovery after storage, relative to control ([3]; 0.5M trehalose in F/2, 0.5M sorbitol pretreatment, 21 weeks): (155%) | Cell number after 21 weeks in storage [4, 6]: 2.831 × 10^6 | % viability after storage & rejuvenation [4, 6]: (104%) | Cell number after 21 weeks in storage & rejuvenation [4, 6]: 1.163 × 10^7 cells/ml | Growth after storage & rejuvenation [4, 6]: 4.1 | Cell recovery after storage, relative to control [4, 6]: (78%) | Cell number after 21 weeks in storage [4, 7]: 2.276 × 10^6 | % viability after storage & rejuvenation [4, 7]: (158%) | Cell number after 21 weeks in storage & rejuvenation [4, 7]: 1.420 × 10^7 cells/ml | Growth after storage & rejuvenation [4, 7]: 6.23 | Cell recovery after storage, relative to control [4, 7]: (80%) | Cell number after 21 weeks in storage [4, 8]: 1.899 × 10^6 | % viability after storage & rejuvenation [4, 8]: 186% | Cell number after 21 weeks in storage & rejuvenation [4, 8]: 1.399 × 10^7 cells/ml | Growth after storage & rejuvenation [4, 8]: 7.34 | Cell recovery after storage, relative to control [4, 8]: (58%) | Cell number after 21 weeks in storage [5, 10]: 1.275 × 10^7 | % viability after storage & rejuvenation [5, 10]: (87%) | Cell number after 21 weeks in storage & rejuvenation [5, 10]: 2.436 × 10^7 cells/ml | Cell recovery after storage [5, 10]: 0.39 | Growth after storage & rejuvenation [5, 10]: 1.91 | Cell recovery after storage, relative to control [5, 10]: (106%) | Cell number after 21 weeks in storage [5, 11]: 1.421 × 10^7 | % viability after storage & rejuvenation [5, 11]: (144%) | Cell number after 21 weeks in storage & rejuvenation [5, 11]: 4.495 × 10^7 cells/ml | Cell recovery after storage [5, 11]: 0.42 | Growth after storage & rejuvenation [5, 11]: 3.16 | Cell recovery after storage, relative to control [5, 11]: (114%) | Cell number after 21 weeks in storage [5, 12]: 2.023 × 10^7 | % viability after storage & rejuvenation [5, 12]: (80%) | Cell number after 21 weeks in storage & rejuvenation [5, 12]: 3.560 × 10^7 cells/ml | Cell recovery after storage [5, 12]: 0.72 | Growth after storage & rejuvenation [5, 12]: 1.76 | Cell recovery after storage, relative to control [5, 12]: (195%)
